Data as given in patent US6218378A, “Anti-tumor agents comprising pyridyl-substituted metal-diphosphine complex” (priority 1994, dated 2001).

Columns and labels:
[1] = test system: 41M, 41M-cisR, SKOV-3, CH1, CH1-cisR; test: growth inhibition of cisplatin-sensitive and -resistant ovarian cancer cell lines (Table 2, FIG. 5); type: cell-based, human
Text: (§1) The sensitive CH1 cell line was established from a patient with drug-sensitive disease and its resistant variant (CH1-cisR) was generated by prolonged in vitro exposure to cisplatin during which it acquired more efficient DNA repair as described in Kelland et al., 1992, Cancer Research 52 3857-3864. The sensitive 41M cell line was also established from a patient with a sensitive tumor and its resistant variant (41M-cisR) was generated in the same way but acquired decreased uptake across the cell membrane (Kelland et al., 1992, supra). The intrinsically-resistant SKOV-3 ovarian carcinoma cell line has high glutathione levels as described in Mistry et al., 1991, Brit. J. Cancer 64 215-220 and reduced levels of bi-functional cisplatin-DNA lesions as described in McKeage et al., 1994, Brit. J. Cancer 69 1-7. The characteristics of the cell line pairs CH1/CH1 cisR, 41M/41McisR and 41M/SKOV3 are described in Table 3.
The cytotoxicity assay used sulforhodamine B which stains the basic amino acids. Cells (5000 or 2500 for SKOV-3) were seeded into 96 well microtitre plates (Linbro, Flow Laboratories Inc., USA) in 0.1 ml of medium. After an overnight incubation, the metal phosphine compounds were dissolved in 0.9% NaCl or ethanol and diluted with medium, were added at concentrations ranging from 0.005 to 50 μM to quadruplicate wells. After 96 hrs incubation, the medium was removed and cells were fixed in 0.2 ml of cold 10% (w/v) trichloroacetic acid (May & Baker Ltd., Dagenham, England) for 30 mins at 4° C. The plates were washed five times with tap water. Then 0.1 ml of 0.4% (w/v) sulforhodamine B (Sigma Chemical Co., St. Louis, USA) dissolved in 1% acetic acid (Ajax Chemicals, Australia) was added to the wells and left to stand at room temperature for 15 mins. The plates were then washed five times with 1% acetic acid and left to dry overnight. The next morning, 0.1 ml of 10 mM Tris buffer (Sigma Chemical Co., St. Louis, USA) was then added to each plate to solubilise the dye. Absorbance was read at a wavelength of 570 nm using a 96 well plate reader Dynatech MR 5000 plate reader. Absorbance of treatment cells was expressed as a percentage of positive (drug-free) controls. The results were plotted as percentage growth versus drug concentration. The drug concentration resulting in a 50% growth inhibition was termed the IC50. The passage numbers used for the cytotoxicity assay from each cell line were, CH1 passages 50-58, CH1 cis-R passages 77-83, 41M passages 50-63, 41M cisR 81-92 and SKOV-3 passages 106-128.

PC9 = test: activity against cisplatin sensitive lung tumour PC9; type: cell-based, human; conditions: very preliminary data
Text: In Table 1, JAM and CI-80-13S are ovarian tumours, HeLa is a cervical tumour and MM96 is a melanoma In Table 2, all the tumours are ovarian tumours. […] In this regard, PC9 is a lung tumour and its derivation is discussed in Hong et al., 1993, Cancer Research 53 3302-3307 and Bungo et al., 1990, Cancer Research 50 2549-2553.

human tumour cell lines = test: selectivity of cytotoxicity over all cell lines evaluated (Tables 1 and 2); type: cell-based
Text: The origins of the human melanoma cell line MM96 has been described in Whitehead et al., 1973, Pigment Cell 1 383-389. The cell line JAM is described in Ward et al., 1987, Cancer Res. 47 2662-2667. The origin of the ovarian tumour line CI-80-13S has been described in Bertoncello et al., 1985, Aust. J. Exp. Biol. Med. Sci. 63 241-243. The origin of the cervical carcinoma cell line HeLa has been described in Maynard et al., 1986, Cancer Res. 46 5009-5093. The subclone HeLa-S1a was derived by stably transfecting HeLa with PAI-2 cDNA described in Schleuning et al., 1987, Mol. Cell. Biol. 7 4564-4567 in the sense orientation under the control of the cyto-megalovirus (CMV) promoter. The stably infected subclone was isolated following G418 selection and expression of the PAI-2 transgene characterised by immunoblot analysis and quantitated by ELISA. All of these cell lines have been used before for carrying out cell survival assays referred to in FIGS. 1-4. Cells were cultured at 37° in 5% CO2 /air in Roswell Park Memorial Institute medium 1640 containing 5% foetal calf serum, 100 μg/ml streptomycin, 100 IU/ml penicillin, 1 mM pyruvate, 50 μM nicotinamide and 3 mM HEPES.
Cells were seeded in microtitre plates (lowest number for fastest growing cells: 1000 HeLa, 2000 MM96, […] CI-80-13S cells per 6 mm well in 100 μl), normally but not necessarily allowed to attach overnight, then 5 dilutions of the drug were added to duplicate wells. After an overnight incubation to equilibrate the pH, the lids were quickly taped around the edge to prevent evaporation. The plates were incubated for 5-7 days, until the controls were nearly confluent. Cell growth/morphology was scored at each dose visually (inverted microscope). The medium was then replaced by 50 μl fresh medium containing 2 u/Ci/ml [methyl-3H]-thymidine (5 Ci/mmol; Radiochemical Centre, Amersham, Bucks., U.K.) and incubated for 2-4 hr. The cells were washed with PBS (0.1 M NaCl, 50 mM phosphate, pH 7.2), detached with 100 μl of PBS containing 0.2 mg/ml trypsin and 10 mM EDTA, and washed onto a glass fibre GF/a filter mat with water using a cell harvester. Later, wells were checked under the microscope to ensure complete detachment and washout. Radioactivity was determined in an LKB Beta Plate counter and the results plotted as log % control cpm versus dose. The ID50 (dose required to give 50% survival) was interpolated from this survival curve.
as §1
The cytotoxicity assay used sulforhodamine B which stains the basic amino acids. Cells (5000 or 2500 for SKOV-3) were seeded into 96 well microtitre plates (Linbro, Flow Laboratories Inc., USA) in 0.1 ml of medium. After an overnight incubation, the metal phosphine compounds were dissolved in 0.9% NaCl or ethanol and diluted with medium, were added at concentrations ranging from 0.005 to 50 μM to quadruplicate wells. After 96 hrs incubation, the medium was removed and cells were fixed in 0.2 ml of cold 10% (w/v) trichloroacetic acid (May & Baker Ltd., Dagenham, England) for 30 mins at 4° C. The plates were washed five times with tap water. […]

[Cl-].c1cc([P+]2(c3ccncc3)CC[P+](c3ccncc3)(c3ccncc3)[Au-3]23[P+](c2ccncc2)(c2ccncc2)CC[P+]3(c2ccncc2)c2ccncc2)ccn1 [[Au(d4pype)2]Cl]
selectivity and cytotoxicity in ovarian cancer cell-lines (FIG. 5) [1]: exhibits the greatest selectivity killing only the CH1/CH1 cisR pair
IC50 (PC9; PC9 lung tumour): 25 µM
activity against PC9 (PC9; cisplatin sensitive lung tumour): modest activity
number of cell lines against which cytotoxic (human tumour cell lines): cytotoxic to only four of the nine cell-lines tested
degree of selectivity (human tumour cell lines; Tables 1 and 2): the greatest selectivity
